Assay results reported in patent US20240051944A1, “CRYSTALLINE FORM II OF MELANOCORTIN RECEPTOR AGONIST COMPOUND AND PREPARATION METHOD THEREFOR” (LG CHEM, LTD., priority 2020, published 2024).
Entries after “also recorded” stand apart in the source; their conditions may differ.

Tests used:
Format in all cases: physicochemical
[1] = Stability assessment (HPLC) under accelerated and harsh storage conditions; conditions: for Stability assessment, HPLC content: in % (unit assumed)
Method: About 10-30 mg of the sample was stored for 4 weeks in an open state under the accelerated condition (40° C., 75% RH) or in a sealed state under the harsh condition in an oven at 80° C. [table]

[2] = Dynamic vapor sorption (DVS) analysis
Method: DVS was measured using automated gravimetric vapor sorption analyzer equipped with Cahn D200 ultra-microbalance (DVS Intrinsic apparatus, Surface Measurement System Ltd., UK). First, a sample of 10-20 mg was put in a sample pan and hung on a hang-down wire, and measurement was started when the weight and humidity reached equilibrium. In one cycle, relative humidity was increased from 0% to 90% and then dropped back to 0%. Two cycles were carried out. The experiment was carried out in a way that the relative humidity was increased at 10% increment using a dm/dt method. The experiment was carried out at room temperature (25° C.)

[3] = Thermogravimetric analysis (TGA); conditions: heated 30° C. to 350° C. at 10° C./min
Method: The TGA was measured using Mettler Toledo TGA/DSC 1 module. About 4-8 mg of the sample is weighed and put into a 100 μL Al crucible (flat-bottomed aluminum crucibles). Then, TGA measurement is performed while the sample is heated from 30° C. to 350° C. at a rate of 10° C./min. During the measurement, nitrogen gas is supplied to the inside of the instrument at a rate of 80 mL/min to prevent the inflow of oxygen and other gases. Data collection and evaluation were performed using the software STARe.

CC(C)C(=O)N([C@H]1C[C@@H](C(=O)N2CCOCC2)N(C(=O)[C@@H]2CN(C(C)(C)C)C[C@H]2c2ccc(Cl)cc2)C1)[C@H]1CC[C@@H](C)CC1 [Example 1, N-((3S,5S)-1-((3S,4R)-1-(tert-butyl)-4-(4-chlorophenyl)pyrrolidine-3-carbonyl)-5-(morpholine-4-carbonyl)pyrrolidin-3-yl)-N-((1s,4R)-4-methylcyclohexyl)isobutyramide]
Stability assessment, HPLC content ([1]; Accelerated condition (40° C./75% RH), open state, Day 3): 96.35 | Stability assessment, HPLC content ([1]; Accelerated condition (40° C./75% RH), open state, Week 1): 96.02 | Stability assessment, HPLC content ([1]; Accelerated condition (40° C./75% RH), open state, Week 2): 96.08 | Stability assessment, HPLC content ([1]; Accelerated condition (40° C./75% RH), open state, Week 4): 95.69 | Stability assessment, HPLC content ([1]; Harsh condition (80° C.), sealed state, Day 3): 96.54 | Stability assessment, HPLC content ([1]; Harsh condition (80° C.), sealed state, Week 1): 95.74 | Stability assessment, HPLC content ([1]; Harsh condition (80° C.), sealed state, Week 2): 94.82 | Stability assessment, HPLC content ([1]; Harsh condition (80° C.), sealed state, Week 4): 93.42 | Stability assessment, HPLC content ([1]; Initial): 96.01 | chemical stability (HPLC), result in words ([1]; accelerated condition (40° C., 75% RH), 4 weeks, listed as crystalline form II): showed chemical stability for 4 weeks; also recorded: exhibited chemical stability for 4 weeks | decrease in the content ([1]; harsh condition (closed state, 80° C.), 4 weeks): about 2.6% | physical change after DVS (XRPD pattern vs initial) ([2]; XRPD after DVS analysis): no physical change occurred | total weight gain (DVS) ([2]; between 0-90% RH, 25° C.): 1.25 % w/w | weight loss before degradation (TGA) [3]: no weight loss was observed | temperature up to which thermally stable (TGA) ([3]; error ±5° C.): up to 270 °C
